Assay [1] concerns ovariectomized female white mice with onset of osteoporosis. Kind of assay: Therapeutic effect on osteoporosis, bone mineral densitometer. Type of assay: in vivo. How it is done: After ovariectomy, female white mice weighing about 250 g were bred for four weeks. After checking the onset of osteoporosis in the mice, each of the mice was orally administered with 220 μl of the Compound 1 dissolved in 30 ml water for four weeks.
BMD measurement was performed before ovariectomy and every week for eight weeks after ovariectomy, using a bone mineral densitometer, XCT 540 Research SA made in Germany.
After anesthetizing the mice being bred in cages by intraperitoneal injection of a mixture of Ketamine HCl (ketara 10 mg/kg) and 2% xylazine HCl (Roupun 0.15 ml/kg), BMD measurement was made at a voxel size of 0.1×0,1 mm^2 and threshold values of 280 mg/cm^2 for cancellous bone and 500 mg/cm^2 for compact bone. The analysis sites at the proximal tibias were determined by Scout scans (10 mm/sec), and BMD was measured at three slices at the determined sites by CT scans (7 mm/sec). BMD measurement was performed twice or more at the same site every week during eight weeks after ovariectomy.

Assay [2] relates to alkaline phosphatase (ALP) in HOS cells. Nature of the assay: Alkaline phosphatase (osteoblast marker enzyme) activity in HOS cells. It is filed as cell-based, human. The conditions noted are these: text summary, concentration not stated. From the text:
In the following tests, three kinds of cell lines were used. The human osteosarcoma cell lines, MG-63 (ATCC No. CRL-1427) and HOS (ATCC No. CRL-1543), and mouse muscle C2C12 muscle cells (ATCC No. CRL-1772) were purchased from ATCC (American Type Culture Collection, Rockville, USA), and cultured in Dulbecco's modified Eagle's medium (DMEM) supplemented with 10% fetal bovine serum (FBS).
To examine whether the Compound 1 affects positively or negatively osteoblast activity, alkaline phosphatase (ALP) activity was measured. HOS cells were aliquotted onto a 96-well microplate at a density of 5×10^3 cells per well, and cultured. When forming a monolayer, the cells were treated with the naturally extracted compound (Compound 1) at prescribed concentrations. After incubation in 10% FBS-containing DMEM for 48 hrs, the cells were treated with 0.1% Triton X-100/saline for 30 min at 37° C. A portion of each cell lysate was reacted with 0.1 N glycine-NaOh buffer (pH 10.4) for 30 min at 37° C. in the presence of 100 mM nitrophenyl phosphate (PNPP) as a substrate of alkaline phosphate. The amount of PNP (ρ-nitrophenol) released from the substrate PNPP was determined by measuring absorbance at 405 nm. Protein amount was determined by a modified Lowry method, and enzyme activity was designated as nmol substrate cleaved/h/mg protein.

Assay [3] concerns osteoclast progenitor cells. Kind of assay: Formation of TRAP-positive multinucleated cells from osteoclast progenitors. It is filed as cell-based, mice. The note with it: for No. of TRAP(+) multinucleated cells: M-CSF + RANKL, untreated control 132.80 ± 10.50; for number of TRAP-positive multinucleated cells in treated cultures: text summary, concentration not stated, control 132. On the procedure:
First, bone marrow cells were isolated, as follow. After sacrificing 7-9 week female mice by cervical dislocation, femur and tibia were excised aseptically while removing attached soft tissues. After cutting both ends of long bones, 1 ml of an enzyme solution, containing 0.1% collagenase (Gibco), 0.05% trypsin and 0.5 mM EDTA (Gibco), was injected to the bone marrow cavity at one end using a syringe with a 26-guage needle, and bone marrow was then collected. After shaking the recovered bone marrow for 30 min, bone marrow cells were collected, and cultured in α-minimum essential medium (α-MEM) supplemented with 10% FBS for 24 hrs. Then, non-adherent cells were collected, which are osteoclast pregenitors, aliquotted onto culture plates at a density of 2×10^5 cells per well, and cultured for 8 days in α-MEM supplemented with 20 ng/ml of macrophage-colony stimulating factor (M-CSF, Peprotech, USA) and 30 ng/ml RANKL (Peprotech, USA). During the 8 days of culturing, the cells were treated with the Compound 1. Thereafter, osteoclast formation was investigated by fixing the cultured cells and then carrying out TRAP staining, as described in the following Experimental Example 2.2. In addition, resorption activity of osteoclasts was investigated by measuring the absorption area after removing osteoclasts in cultures in calcium phosphate-coated plates, as described in Experimental Example 2.3, below.
After cell culture, the adherent cells were washed with PBS, and TRAP staining was performed, as follows. After being fixed with citrate-acetate-formaldehyde for 5 min, the cells were incubated for 1 hr in acetate buffer (prewarmed at 37° C., pH 5.0) containing naphthol AS-BI phosphate, fast Garnet GBC and 7 mM tartrate buffer (pH 5.0). TRAP-positive multinucleated cells having 3 or more nuclei were considered as osteoclasts.

In the case of `O=Cc1ccc(CO)o1` [Compound 1, 5-hydroxymethylfuran-2-carboxyaldehyde], the “decrease of BMD compared to that before the ovariectomy” value in assay [1] (control about 22%) was “about 15%”. Further, in assay [1] (oral 220 μl/day for four weeks after four weeks of osteoporosis development), the “reduction of BMD compared to a control (in words)” value is given as “very slight reduction of BMD”. In addition, the “Change in BMD, %” value in assay [1] (week 1 after ovariectomy (administration begins after week 4), control −3) is listed as −2.9%; in assay [1] (week 2 after ovariectomy (administration begins after week 4), control −10), −10.5%; in assay [1] (week 3 after ovariectomy (administration begins after week 4), control −15) it was −14%; in assay [1] (week 4 after ovariectomy (administration begins after week 4), control −19) it was −17%; in assay [1] (week 5 after ovariectomy, oral 220 μl in 30 ml water from week 4, control −21.8), −16.5%; in assay [1] (week 7 after ovariectomy, oral 220 μl in 30 ml water from week 4, control −25.9), −19%. In addition, in assay [1] (week 8 after ovariectomy, oral 220 μl in 30 ml water from week 4, control −32), the “Change in BMD, %” value is recorded as −21.4%. The “alkaline phosphatase activity compared to a control not treated” value in assay [2] was “about 121%”; in assay [2] (listed as Example 1), 120%. The “No. of TRAP(+) multinucleated cells” value in assay [3] (10^−4 M Compound 1, 8 days) stood at 77.20 ± 6.73; in assay [3] (10^−5 M Compound 1, 8 days) it was 108.20 ± 4.57; in assay [3] (10^−6 M Compound 1, 8 days), 103.60 ± 6.95; in assay [3] (10^−7 M Compound 1, 8 days) it was 120.00 ± 6.42; in assay [3] (10^−8 M Compound 1, 8 days) it was 105.20 ± 8.58. Besides, the “number of TRAP-positive multinucleated cells in treated cultures” value in assay [3] is recorded as 77; in assay [3] (listed as Example 1), “remarkably reduced”.

The values are drawn from US20060004088A1, “Furan derivatives for preventing and curing osteoporosis and pharmaceutical compositions containing the same” (OCT INC., priority 2002, published 2006).
